Laboratory results: patent US12295396B2, “Antagonists of T2R54 and compositions and uses thereof” (Firmenich Incorporated, priority 2018, dated 2025)

These molecules were tested against T1, hT2R54 (Homo sapiens, UniProt P59534) (assay: Cell-based assay for measuring hT2R54 inhibition (FLIPR calcium, Fluo4AM, acetaminophen as bitter agonist)). Settings: Table 4; cells stably expressing hT2R54 and a promiscuous G protein; read-out: hT2R54 IC50.
T1 construct: expressed in transfected cells; it overexpresses a promiscuous G protein
T1 sequence (P59534 1-338): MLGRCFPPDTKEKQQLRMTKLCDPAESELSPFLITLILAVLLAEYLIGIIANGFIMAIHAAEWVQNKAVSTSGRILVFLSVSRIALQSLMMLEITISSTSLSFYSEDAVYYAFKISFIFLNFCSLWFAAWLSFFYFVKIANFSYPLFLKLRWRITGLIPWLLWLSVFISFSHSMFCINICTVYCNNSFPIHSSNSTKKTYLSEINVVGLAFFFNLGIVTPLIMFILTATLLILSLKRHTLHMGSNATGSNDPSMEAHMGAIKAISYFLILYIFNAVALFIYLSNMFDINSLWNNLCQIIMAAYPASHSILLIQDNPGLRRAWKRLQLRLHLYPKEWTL
Method: Cells stably expressing hT2R54 and a promiscuous G protein were seeded in 384 well plates 24 hours prior to the experiment. Cells were loaded with the calcium indicator Fluo4AM, washed and loaded in a FLIPR instrument with a compound plate containing increasing doses of acetaminophen in quadruplicates and prepared at 2× of final concentration. Baseline was recorded for 10 seconds, then 25 μl of […] was added onto 25 μl of cells and resulting changes in fluorescence were monitored over an additional 3 minutes. The host cell line overexpressing the G protein but not hT2R54 was treated as described above.
The ability of a test compound that blocks bitter taste elicited through hT2R54 was measured in this assay, as follows. Cells stably expressing hT2R54 and a promiscuous G protein were seeded in 384 well plates 24 hours prior to the experiment. Cells were loaded with the calcium indicator Fluo4AM, washed and loaded in a FLIPR instrument with a compound plate containing increasing doses of acetaminophen in buffer and increasing doses of acetaminophen with depicted fixed concentrations of Cmpd 109 (Table 4). Base line was recorded for 10 seconds, then 25 μl of compound and compound mixtures were added onto 25 μl of cells and resulting changes in fluorescence were monitored over an additional 3 minutes. The concentration of test compound that blocks half of the response when the bitter compound alone is present is presented as the EC50 or IC50 value.
In the examples above, the EC50 of compounds for blocking bitter taste elicited through T2R54 was measured in the same manner.

SMILES	IC50 [nM]
COC(=O)C1CN(CC(=O)Nc2cc3c(cc2C(C)=O)OCO3)CCC1=O (centres unmarked) [compound 126]	154
CCOC(=O)C1CN(CC(=O)Nc2cc3c(cc2C(C)=O)OCO3)CCO1 (centres unmarked) [compound 127]	13
CCOC(=O)C1COCCN1CC(=O)Nc1cc2c(cc1C(C)=O)OCO2 (centres unmarked) [compound 128]	79
CC(=O)c1cc2c(cc1NC(=O)CN1CCN(C(=O)OC(C)(C)C)CC1)OCO2 [compound 129]	< 1000
CC(=O)c1cc2c(cc1NC(=O)CN(C)C1CCCCC1)OCO2 [compound 130]	312
CCN(CCOC)CC(=O)Nc1cc2c(cc1C(C)=O)OCO2 [compound 131]	2000
COC(=O)CN(C)CC(=O)Nc1cc2c(cc1C(C)=O)OCO2 [compound 132]	659
CCOC(=O)CCN(C)CC(=O)Nc1cc2c(cc1C(C)=O)OCO2 [compound 133]	113
CC(=O)c1cc2c(cc1NC(=O)CN(C)CCC(=O)N(C)C)OCO2 [compound 134]	960
CCNC(=O)CCN(C)CC(=O)Nc1cc2c(cc1C(C)=O)OCO2 [compound 135]	500
CCOC(=O)CCN(CC)CC(=O)Nc1cc2c(cc1C(C)=O)OCO2 [compound 136]	179
CCOC(=O)[C@@H]1CCCC[C@H]1N(C)CC(=O)Nc1cc2c(cc1C(C)=O)OCO2 [compound 137]	2830
CC(=O)c1cc2c(cc1NC(=O)CN(C)C1CCCN(C(=O)OC(C)(C)C)C1)OCO2 (centres unmarked) [compound 138]	150
CC(=O)c1cc2c(cc1NC(=O)CNC1CCN(C(=O)OC(C)(C)C)CC1)OCO2 [compound 139]	176
CC(=O)c1cc2c(cc1NC(=O)CN(C)C1CCN(C(=O)OC(C)(C)C)CC1)OCO2 [compound 140]	433
CCOC(=O)C1CCC(N(C)CC(=O)Nc2cc3c(cc2C(C)=O)OCO3)CC1 (centres unmarked) [compound 141]	168
CCOC(=O)CCN(C)CC(=O)Nc1cc2c(cc1OC)OCO2 [compound 142]	230
COc1cc2c(cc1NC(=O)CN1CCOCC1)OCO2 [compound 143]	142
COc1cc2c(cc1NC(=O)CN1CCCC(O)C1)OCO2 (centres unmarked) [compound 144]	< 2000
COc1cc2c(cc1NC(=O)CN1CCCC(OC)C1)OCO2 (centres unmarked) [compound 145]	575
COc1cc2c(cc1NC(=O)CN1CCC(O)CC1)OCO2 [compound 146]	< 2000
COc1cc2c(cc1NC(=O)CN1CCC(OC)CC1)OCO2 [compound 147]	448
COc1cc2c(cc1NC(=O)CN1CCN(C(=O)OC(C)(C)C)CC1)OCO2 [compound 148]	< 2000
COc1cc2c(cc1NC(=O)CN1CCCc3cccc(F)c31)OCO2 [compound 149]	885
COc1cc2c(cc1NC(=O)CN1CCc3ccccc31)OCO2 [compound 150]	393
CCOC(=O)C1CCCN(CC(=O)Nc2cc3c(cc2Cl)OCCO3)C1 (centres unmarked) [compound 151]	152
CC(=O)c1cc2c(cc1NC(=O)CN1CCOCC1)OCCO2 [compound 152]	630
CCOC(=O)C1CCN(CC(=O)Nc2cc3c(cc2C(C)=O)OCCO3)CC1 [compound 153]	24

Same assay, conditions: Table 5; cells stably expressing hT2R54 and a promiscuous G protein; read-out: hT2R54 IC50

SMILES	IC50 [nM]
CNC(=O)C1CCCN(CC(=O)Nc2cc3c(cc2C(C)=O)OCO3)C1 (centres unmarked) [compound 154, 1-(2-((6-Acetylbenzo[d][1,3]dioxol-5-yl)amino)-2-oxoethyl)-N-methylpiperidine-3-carboxamide]	24
CCNC(=O)C1CCCN(CC(=O)Nc2cc3c(cc2C(C)=O)OCO3)C1 (centres unmarked) [compound 155]	210
CC(=O)c1cc2c(cc1NC(=O)CN1CCCC(C(=O)NCc3ccccc3)C1)OCO2 (centres unmarked) [compound 156]	114
CC(=O)c1cc2c(cc1NC(=O)CN1CCCC(C(=O)Nc3ccccc3)C1)OCO2 (centres unmarked) [compound 157]	565
CC(=O)c1cc2c(cc1NC(=O)CN1CCCC(C(=O)N(C)C)C1)OCO2 (centres unmarked) [compound 158]	107
CC(=O)c1cc2c(cc1NC(=O)CN1CCCC(C(=O)N3CCOCC3)C1)OCO2 (centres unmarked) [compound 159]	497
CNC(=O)C1CCCCN1CC(=O)Nc1cc2c(cc1C(C)=O)OCO2 (centres unmarked) [compound 160]	1270
CNC(=O)C1CCN(CC(=O)Nc2cc3c(cc2C(C)=O)OCO3)CC1 [compound 161]	1350
CCNC(=O)C1CCN(CC(=O)Nc2cc3c(cc2C(C)=O)OCO3)CC1 [compound 162]	747
CC(=O)c1cc2c(cc1NC(=O)CN1CCC(C(=O)Nc3cccnc3)CC1)OCO2 [compound 163]	459
CC(=O)c1cc2c(cc1NC(=O)CN1CCC(C(=O)Nc3ccccc3)CC1)OCO2 [compound 164]	2090
CC(=O)c1cc2c(cc1NC(=O)CN1CCC(C(=O)NCc3ccccc3)CC1)OCO2 [compound 165]	1400

Same assay, conditions: Table 6; cells stably expressing hT2R54 and a promiscuous G protein; read-out: hT2R54 IC50

SMILES	IC50 [nM]
CC(=O)NC1CCN(CC(=O)Nc2cc3c(cc2C(C)=O)OCO3)CC1 [compound 166, 2-(4-Acetamidopiperidin-1-yl)-N-(6-acetylbenzo[d][1,3]dioxol-5-yl)acetamide]	264
CCC(=O)NC1CCN(CC(=O)Nc2cc3c(cc2C(C)=O)OCO3)CC1 [compound 167]	310
CC(=O)c1cc2c(cc1NC(=O)CN1CCC(NC(=O)C(C)C)CC1)OCO2 [compound 168]	140
CC(=O)c1cc2c(cc1NC(=O)CN1CCC(NC(=O)CC(C)C)CC1)OCO2 [compound 169]	140
CC(=O)c1cc2c(cc1NC(=O)CN1CCC(CNC(=O)CC(C)C)CC1)OCO2 [compound 170]	188
CC(=O)c1cc2c(cc1NC(=O)CN1CCC(NC(=O)c3ccccc3)CC1)OCO2 [compound 171]	60
CC(=O)c1cc2c(cc1NC(=O)CN1CCC(NC(=O)c3ccco3)CC1)OCO2 [compound 172]	690
CC(=O)c1cc2c(cc1NC(=O)CN1CCC(NC(=O)c3cccs3)CC1)OCO2 [compound 173]	110
CC(=O)c1cc2c(cc1NC(=O)CN1CCC(NC(=O)c3ccccn3)CC1)OCO2 [compound 174]	270
CC(=O)c1cc2c(cc1NC(=O)CN1CCC(NC(=O)c3cccnc3)CC1)OCO2 [compound 175]	110
CC(=O)c1cc2c(cc1NC(=O)CN1CCC(NC(=O)c3ccncc3)CC1)OCO2 [compound 176]	450
CC(=O)c1cc2c(cc1NC(=O)CNC1CCN(C(=O)CC(C)C)CC1)OCO2 [compound 177]	200
CC(=O)c1cc2c(cc1NC(=O)CNC1CCN(C(=O)c3ccco3)CC1)OCO2 [compound 178]	60
CC(=O)c1cc2c(cc1NC(=O)CNC1CCN(C(=O)c3cccnc3)CC1)OCO2 [compound 179]	90
CC(=O)c1cc2c(cc1NC(=O)CN1CCC(N(C)C(=O)CC(C)C)CC1)OCO2 [compound 180]	589
CC(=O)c1cc2c(cc1NC(=O)CN1CCC(N(C)C(=O)c3ccco3)CC1)OCO2 [compound 181]	676
CC(=O)c1cc2c(cc1NC(=O)CN1CCC(N(C)C(=O)c3cccnc3)CC1)OCO2 [compound 182]	455

Same assay, conditions: Table 7; cells stably expressing hT2R54 and a promiscuous G protein; read-out: hT2R54 IC50

SMILES	IC50 [nM]
CC(=O)c1cc2c(cc1NC(=O)CN(C)C1CCN(C(=O)c3ccco3)CC1)OCO2 [compound 183, N-(6-Acetylbenzo[d][1,3]dioxol-5-yl)-2-((1-(furan-2-carbonyl)piperidin-4-yl)(methyl)amino)acetamide]	61
CC(=O)c1cc2c(cc1NC(=O)CN(C)C1CCN(C(=O)CC(C)C)CC1)OCO2 [compound 184, N-(6-Acetylbenzo[d][1,3]dioxol-5-yl)-2-(methyl(1-(3-methylbutanoyl)piperidin-4-yl)amino)acetamide]	98
CC(=O)c1cc2c(cc1NC(=O)CN(C)C1CCCN(C(=O)CC(C)C)C1)OCO2 (centres unmarked) [compound 185]	50
CC(=O)c1cc2c(cc1NC(=O)CN(C)C1CCCN(C(=O)c3ccco3)C1)OCO2 (centres unmarked) [compound 186]	20
CC(=O)c1cc2c(cc1NC(=O)CN(C)C1CCCN(C(=O)c3cccnc3)C1)OCO2 (centres unmarked) [compound 187]	100
CCOC(=O)N1CCCC(N(C)CC(=O)Nc2cc3c(cc2C(C)=O)OCO3)C1 (centres unmarked) [compound 188]	90
CCNC(=O)N1CCCC(N(C)CC(=O)Nc2cc3c(cc2C(C)=O)OCO3)C1 (centres unmarked) [compound 189]	30
CCCS(=O)(=O)N1CCCC(N(C)CC(=O)Nc2cc3c(cc2C(C)=O)OCO3)C1 (centres unmarked) [compound 190]	40
